Like-named read-outs stand apart in the source and are kept apart here.
Key:
Human Cytochrome P450 [1] = test: Protocol C: human cytochrome P450-mediated biotransformation of terfenadine in human hepatic S9; assay type: biochemical
Experimental: Protocol C: Assessment of Human Cytochrome P450-Mediated Biotransformation
The process of preparing incubation mixtures begins by mixing 10 uL of ethanol or an ethanolic solution containing an inhibitor with 100 uL of 100 mg/mL bovine serum albumin (Sigma) dissolved in reaction buffer at room temperature. Reaction buffer is composed of 0.10 M sodium phosphate, 1.0 mM ethylenediaminetetraacetic acid, and 5.0 mM magnesium chloride, pH 7.4 (all reagents: Fisher Scientific). Inhibitory chemicals used were ketoconazole (Research Diagnostics, Inc.), miconazole, bergapten, xanthotoxin (previous three from Sigma), bergamotin, imperatorin, isopimpinellin, psoralen, angelicin (previous five from Indofine Chemical Company, Inc.), and fractions or precipitates resulting from Protocols A, A′, B, B′, or B″ above. When possible, final inhibitor concentrations were expressed in molarity by calculation from the weighed material or by interpolation from HPLC calibration curves prepared with reference materials; otherwise, concentrations are expressed as weight per volume. Reaction tubes are placed on ice in preparation for the manipulations that follow. Sufficient reaction buffer is added so that the final volume of each tube will be 500 uL, 5 uL of a 100-fold concentrate for generating reduced nicotinamide adenine dinucleotide phosphate is added (such that completed reaction mixture contains 1.0 mM nicotinamide adenine dinucleotide phosphate, 1 U/mL glucose-6-phosphate dehydrogenase, and 10 mM glucose-6-phosphate; all from Sigma), and then human hepatic S9 (Anatomic Gift Foundation) is thawed and added in sufficient amounts to cause readily detectable amounts of metabolites to be formed in control reactions (amount necessary varies among individuals, but 10 uL is typical).
The samples prepared above are readied for HPLC assessment using the protocol that follows. Each tube is vortex mixed and centrifuged for 10 min at setting 35, the resulting supernatant is transferred to a clean tube, and the liquid is evaporated using a Speed Vac apparatus. The residue in each tube is first dissolved in 40 uL 1:1 acetonitrile:water, 2.5 mL of acetonitrile is added, and the centrifuge-transfer-evaporate step just described is repeated.
Linear gradients are used for elution and are formed by mixing mobile phase A composed of water with mobile phase B composed of 0.025% (v/v) formic acid in acetonitrile (instrument: Hewlett Packard). The elution time, in minutes, the percentage of mobile phase B present in the mixed mobile phase, and the flow rate (mL/min) are as follows: 0, 10, 0.10; 2, 10, 0.10; 3.5, 10, 0.20; 4, 10, 0.25; 5, 10, 0.25; 30, 55, 0.25; 32, 98, 0.25; 33, 98, 0.40; 39.8, 98, 0.40; 40, 98, 0.25; 45, 10, 0.25; 45.25, 10, 0.20; 50, 10, 0.20; 50.25, 10, 0.10. The chromatographic column has dimensions of 150 mm length×2.1 mm internal diameter, is packed with a proprietary material (Prism, Keystone Scientific, Inc.), is protected with a 2 mm internal diameter column containing the same material and with a PTFE filter, and is maintained at 35+/−0.2° C. The dry sample residue is mixed with 60 uL of 1:1 acetonitrile:water followed by 40 uL water just prior to each 50.25 min run cycle. The column eluate from each 10 uL injection is monitored for fluorescence with excitation at 228 nm, emission at 291 nm, and bandpass filtration at 280 nm.

Human Cytochrome P450 [2] = test: Protocol C′: human cytochrome P450-mediated biotransformation of saquinavir in human hepatic S9; assay type: biochemical
Experimental: Protocol C′: Assessment of Human Cytochrome P450-Mediated Biotransformation
The process of preparing incubation mixtures begins by mixing 10 uL of ethanol (control reactions) or an ethanolic solution containing an inhibitor with 100 uL of 100 mg/mL bovine serum albumin (Sigma) dissolved in reaction buffer at room temperature. Reaction buffer is composed of 0.10 M sodium phosphate, 1.0 mM ethylenediaminetetraacetic acid, and 5.0 mM magnesium chloride, pH 7.4 (all reagents: Fisher Scientific). […] Sufficient reaction buffer is added so that the final volume of each tube will be 500 uL, 5 uL of a 100-fold concentrate for generating reduced nicotinamide adenine dinucleotide phosphate is added (such that completed reaction mixture contains 1.0 mM nicotinamide adenine dinucleotide phosphate, 1 U/mL glucose-6-phosphate dehydrogenase, and 10 mM glucose-6-phosphate; all from Sigma), and then human hepatic S9 (Anatomic Gift Foundation) is thawed and added in sufficient amounts to cause readily detectable amounts of metabolites to be formed in control reactions (amount necessary varies among individuals, but 10 uL is typical). […]
The samples prepared above are readied for HPLC assessment using the protocol that follows. […]

[3] = heart transplant patients, cyclosporin co-administered with ketoconazole; cited from earlier work
[4] = oral tablet; cited from earlier work
[5] = protocol not given, Protocol C or C′

| Structure (SMILES) | first-pass effect inhibition, determined herein (Human Cytochrome P450 [1]) | first-pass effect inhibition, determined herein (Human Cytochrome P450 [1]; [5]) | also measured |
| --- | --- | --- | --- |
| CC(=CCOc1c2ccoc2cc2oc(=O)ccc12)CCC(O)C(C)(C)O (centres unmarked) [6′,7′-dihydroxybergamottin] | ineffective | – | – |
| O=c1ccc2ccc3occc3c2o1 [angelicin] | – | ineffective | – |
| CC(C)=CCC/C(C)=C/COc1c2ccoc2cc2oc(=O)ccc12 [bergamottin] | ineffective | – | first-pass inhibition (generation of saquinavir metabolites in presence of inhibitor) (Human Cytochrome P450 [2]): essentially ineffective |
| CC(C)=CCOc1c2occc2cc2ccc(=O)oc12 [imperatorin] | – | ineffective | first-pass inhibition (generation of saquinavir metabolites in presence of inhibitor) (Human Cytochrome P450 [2]; Protocol C′, human hepatic S9, FIG. 1): essentially ineffective |
| COc1c2ccoc2c(OC)c2oc(=O)ccc12 [isopimpinellin] | ineffective | – | – |
| CC(=O)N1CCN(c2ccc(OCC3COC(Cn4ccnc4)(c4ccc(Cl)cc4Cl)O3)cc2)CC1 (centres unmarked) [ketoconazole] | – | – | reduction of the dose of cyclosporin required [3]: approximately 85% |
| C/C(=C\COc1ccc2ccc(=O)oc2c1)CC[C@@H](O)C(C)(C)O [marmin] | ineffective | – | – |
| O=c1ccc2cc3ccoc3cc2o1 [psoralen] | – | ineffective | – |
| CC(C)(C)c1ccc(C(O)CCCN2CCC(C(O)(c3ccccc3)c3ccccc3)CC2)cc1 (centres unmarked) [terfenadine] | – | – | part of a tablet given by mouth quickly changed to metabolites [4]: 99.5% |

Source: patent US7230027B2, “Anti-first-pass effect compounds” (Bioavailability Systems, L.L.C., priority 1997, dated 2007)
